{"source": "patent US20060039866A1", "about": "“Method for treating sleep-related breathing disorders” (Cypress Bioscience, Inc., priority 2004, published 2006)", "key": {"rat model": {"tested_on": "rat model", "settings": "cited from earlier work"}, "[1]": {"tested_on": "patients with sleep apnea", "settings": "cited from earlier work; for benefit in OSAS / obstructive sleep apnea: individuals with obstructive apnea"}, "[2]": {"experiment": "treating OSA with MER 810", "settings": "in vivo", "source_text": "The latter has been associated with worsening OSA symptoms due to reduction in upper airway tone in animal models. However, this pharmacology may also increase SWS and increase respiratory drive via peripheral effects, while its serotonin (5-HT) reuptake inhibition and 5-HT1A agonist activities decrease REM sleep. The 5-HT1A agonist activity also increases respiratory drive and may increase upper airway muscle tone (Homer). Adding a noradrenergic alpha1 agonist, alpha2 antagonist or reuptake inhibitor bolsters the latter effect."}, "[3]": {"tested_on": "animal model of sleep apnea", "settings": "cited from earlier work"}, "[4]": {"settings": "individuals with obstructive sleep apnea"}}}
{"molecule": "CN1CCN2c3ncccc3Cc3ccccc3C2C1", "note": "(stereo not shown) [mirtazapine, 1,2,3,4,10,14b-hexahydro-2-methylpyrazino[2,1-a]pyrido[2,3-c]benzazepine]", "values": [{"measurement": "efficacy in the rat model", "setting": "rat model", "result": "appeared effective"}]}
{"molecule": "Cn1c(=O)c2[nH]cnc2n(C)c1=O", "note": "[theophylline]", "values": [{"measurement": "benefit in OSAS / obstructive sleep apnea", "setting": "[1]", "result": "of no use"}, {"measurement": "benefit in central apnea", "setting": "[1]; patients with central apnea", "result": "may benefit"}]}
{"molecule": "medroxyprogesterone", "values": [{"measurement": "benefit in OSAS / obstructive sleep apnea", "setting": "[1]", "result": "no consistent benefit"}]}
{"molecule": "CCN1CC(CCN2CCOCC2)C(c2ccccc2)(c2ccccc2)C1=O", "note": "(stereo not shown) [doxapram]", "values": [{"measurement": "average arterial oxygen saturation", "setting": "[1]; [4]", "result": "did not alter"}, {"measurement": "length of apneas", "setting": "[1]; [4]", "result": "decrease the length of apneas"}]}
{"molecule": "CNCCCC1c2ccccc2C=Cc2ccccc21", "note": "[Protriptyline]", "values": [{"measurement": "results of several small trials", "setting": "[1]; individuals with OSAS", "result": "variable results"}, {"measurement": "side effects", "setting": "[1]; several small trials", "result": "frequent and significant side effects"}]}
{"molecule": "CC(=O)Nc1nnc(S(N)(=O)=O)s1", "note": "[acetazolamide, N-(5-[Aminosulfonyl]-1,3,4-thiadiazol-2-yl)acetamide]", "values": [{"measurement": "apnea/hypopnea frequency", "setting": "[1]; Whyte et al., Sleep", "result": "improvement in apnea/hypopnea frequency"}, {"measurement": "frequency of 4% desaturation", "setting": "[1]; Whyte et al., Sleep", "result": "decreased the frequency of 4% desaturation"}]}
{"molecule": "CC1CN(c2cccc(Cl)c2)CCN1CCCn1nc2ccccn2c1=O", "note": "(stereo not shown) [MER 810]", "values": [{"measurement": "effectiveness in treating OSA", "setting": "[2]", "result": "quite effective"}]}
{"molecule": "C=CCN1CC[C@]23c4c5ccc(O)c4O[C@H]2C(=O)CC[C@@]3(O)[C@H]1C5", "note": "[naloxone]", "values": [{"measurement": "benefit in OSAS / obstructive sleep apnea", "setting": "[1]", "result": "only slightly helpful"}]}
{"molecule": "Nc1ncnc2c1ncn2[C@@H]1O[C@H](CO)[C@@H](O)[C@H]1O", "note": "[adenosine]", "values": [{"measurement": "reducing apnea", "setting": "[3]", "result": "somewhat effective"}]}
